From publication PMC11249646, “Small-Molecule Disruptors of the Interaction between Calcium- and Integrin-Binding Protein 1 and Integrin αIIbβ3 as Novel Antiplatelet Agents” (ACS Pharmacology & Translational Science, 2024)
pIC50: −log10 of the molar value. Like-named read-outs stand apart in the source and are kept apart here.

Tests used:
[1] = biological target: T1, GST-CIB1 : F-scrambled peptide (Homo sapiens, UniProt Q99828); experiment: FP scrambled-peptide counter screen, 1536-well format; assay type: binding; conditions: scrambled-peptide counterscreen; for COUNTERSCREEN Confirm?: YES/NO call; for COUNTERSCREEN Curve Class: qHTS curve class; for pIC50: read-out: COUNTERSCREEN IC50
T1 construct: made in house; host or cells: BL-21 plus RIL cells (E. coli)
T1 sequence (Q99828 1-191): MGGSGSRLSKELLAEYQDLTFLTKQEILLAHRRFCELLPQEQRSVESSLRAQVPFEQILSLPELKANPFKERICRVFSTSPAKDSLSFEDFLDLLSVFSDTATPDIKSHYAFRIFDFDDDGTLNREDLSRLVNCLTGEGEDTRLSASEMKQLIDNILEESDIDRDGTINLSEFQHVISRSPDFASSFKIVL

[2] = biological target: T2, GST-CIB1:F-αIIb interaction (Homo sapiens, UniProt Q99828); experiment: Gel-based (in-gel) binding assay; conditions: 1 μM GST-CIB1, 400 nM F-αIIb; for Active in Gel Assay?: 60 μM, 1:2, 4-points
T2 construct: made in house; host or cells: BL-21 plus RIL cells (E. coli)
T2 sequence (Q99828 1-191): T1 sequence (Q99828 1-191)

[3] = biological target: T3, CIB1 and αIIb interaction (CIB1-GST : F-αIIb peptide) (Homo sapiens, UniProt Q99828); experiment: FP assay, 1536-well qHTS format (primary and confirmatory screen); assay type: binding; conditions: for CONFIRMATORY SCREEN Confirm?: YES/NO call; for CONFIRMATORY SCREEN Curve Class: qHTS curve class; for CONFIRMATORY SCREEN Curve Class / Curve Class: negative sign = inhibitory curve; for CONFIRMATORY SCREEN Efficacy (%) / Efficacy (%): negative = inhibition
T3 construct: made in house; host or cells: BL-21 plus RIL cells (E. coli)
T3 sequence (Q99828 1-191): T1 sequence (Q99828 1-191)

[4] = biological target: T1, GST-CIB1 : F-scrambled peptide; experiment: FP scrambled-peptide counter screen, 384-well format; assay type: binding; conditions: F-scrambled peptide; for 384-well COUNTERSCREEN Confirm?: *: Curve in opposite direction; for pIC50: read-out: 384-well COUNTERSCREEN IC50
[5] = biological target: T4, CIB1 and αIIb interaction (GST-CIB1 : F-αIIb peptide) (Homo sapiens, UniProt Q99828); experiment: FP assay, 384-well format (screen); assay type: binding; design: 384-well SCREEN Efficacy (%): concentration or dose not given beside the values; conditions: F-αIIb peptide; for 384-well SCREEN Confirm?: YES/NO; for pIC50: read-out: 384-well SCREEN IC50
T4 construct: made in house; host or cells: BL-21 plus RIL cells (E. coli)
T4 sequence (Q99828 1-191): T1 sequence (Q99828 1-191)

[6] = biological target: T5, GST-CIB1 : F-αIIb peptide (Homo sapiens, UniProt Q99828); experiment: FP assay in the presence of glutathione (GSH), thiol reactivity; assay type: binding; conditions: for GSH/CIB1 IC50 ratio: ratio of GSH (+) IC50 to GSH (-) IC50; for shift in potency in the presence of GSH: with vs without 10 μM reduced GSH; for GSH Assay Result: thiol reactivity call: No change / Active
T5 construct: made in house; host or cells: BL-21 plus RIL cells (E. coli)
T5 sequence (Q99828 1-191): T1 sequence (Q99828 1-191)

[7] = concentrations tested 60, 30, 15, 7.5
[8] = confirmatory screen, read-out: CONFIRMATORY SCREEN IC50
[9] = qHTS FP screen hits, Table S2, one class per curve where COUNT > 1
[10] = qHTS FP screen hits, Table S2, read-out: IC50
[11] = FP assay in the presence of glutathione (GSH +), read-out: GSH (+) Assay IC50
[12] = FP assay without glutathione (GSH -), read-out: GSH (-) Assay IC50

| SMILES | COUNTERSCREEN Efficacy (%) [1] [%] | COUNTERSCREEN Confirm? [1] | COUNTERSCREEN Curve Class [1] | Active in Gel Assay? [2] | Inhibited concentration in gel (µM) [2, 7] | CONFIRMATORY SCREEN Confirm? ([3]; confirmatory screen) | CONFIRMATORY SCREEN Curve Class ([3]; confirmatory screen) | CONFIRMATORY SCREEN Efficacy (%) ([3]; confirmatory screen) | pIC50 [3, 8] | Efficacy (%) ([3]; qHTS FP screen hits, Table S2) | Curve Class [3, 9] | pIC50 [3, 10] | 384-well COUNTERSCREEN Efficacy (%) [4] [%] | 384-well COUNTERSCREEN Confirm? [4] | pIC50 [4] | 384-well SCREEN Efficacy (%) [5] [%] | 384-well SCREEN Confirm? [5] | pIC50 [5] | pIC50 [6, 11] | pIC50 [6, 12] | also measured |
| --- | --- | --- | --- | --- | --- | --- | --- | --- | --- | --- | --- | --- | --- | --- | --- | --- | --- | --- | --- | --- | --- |
| CC(C)(C)c1ccc(SC2=NS(=O)(=O)c3ccccc32)cc1 [NCGC00189495-01] | 0 | YES | 4 | YES | 60,30 µM | YES | -2.4 | -62 | 4.50 | -38 | -2.2 | 4.40 | 25 | YES | < 3.92 | 35 | YES | 5.05 | < 3.92 | 5.21 | GSH/CIB1 IC50 ratio [6]: 28.3; shift in potency in the presence of GSH [6]: right-shift in potency |
| CC(C)=CCC[C@]1(C)C=Cc2c(O)c3c(c(CC=C(C)C)c2O1)O[C@]12C(=C[C@@H]4CC1C(C)(C)O[C@@]2(C/C=C(/C)C(=O)O)C4=O)C3=O [NCGC00485239-01] | 32 | YES | 1.4 | YES | 60,30 µM | YES | -1.2 | -54 | 5.05 | -34 | -1.2 | 4.95 | 40 | YES | < 3.92 | 60 | YES | 5.44 | 5.62 | 5.70 | pIC50 [1]: 4.90; GSH/CIB1 IC50 ratio [6]: 1.2; GSH Assay Result [6]: No change |
| O=C1C(I)=CC(=C(c2cc(I)c([O-])c(I)c2)c2ccccc2C(=O)[O-])C=C1I.[Na+].[Na+] [NCGC00161636-02] | 435 | YES |  | YES |  | YES | -1.2 | -74 | 4.95 | -47 | -1.2 |  | 105 | YES | 4.85 | 78 | YES | 4.50 | 4.55 | 4.80 | pIC50 [1]: 4.05; Inhibited concentration in gel [2, 7]: 60 µM; IC50 ([3]; IC50 [μM], qHTS FP screen hits, Table S2): 17.8 µM; GSH Assay Result [6]: No change |
| S=C(SSC(=S)N1CCCCC1)N1CCCCC1 [NCGC00181776-02, dipentamethylenethiuram disulfide] | 0 | YES | 4 | YES | 60,30 µM | YES | -1.4 | -72 | 4.60 |  |  |  | 38 | YES | < 3.92 | 80 | YES | 5.20 |  |  | Efficacy (%) ([3]; qHTS primary screen hits, Table S2): -64%; Curve Class ([3]; qHTS primary screen hits, Table S2, several classes where COUNT > 1): -1.2; pIC50 ([3]; qHTS primary screen hits, Table S2, read-out: IC50): 4.55; shift in potency in the presence of GSH [6]: right-shift in potency |
